Data taken from patent publication US5962513A, “2-aminomethyl-chromans effective in the treatment of psychoses and depression” (Bayer Aktiengesellschaft, priority 1991, dated 1999).
Structures can show the parent of a compound that is named as a salt.

Experiments:
[1] = molecular target: T1, 5-HT1A receptor (Bos taurus, UniProt F6Q2H9); test: Affinity for the 5-HT1A receptor, 3H-ipsapiron binding to calf hippocampus membranes; conditions: 3H-ipsapiron radioligand
T1 construct: 5-HT1A receptors in calf hippocampus membranes; from tissue; host or cells: calf hippocampus membranes
T1 sequence (F6Q2H9 1-422): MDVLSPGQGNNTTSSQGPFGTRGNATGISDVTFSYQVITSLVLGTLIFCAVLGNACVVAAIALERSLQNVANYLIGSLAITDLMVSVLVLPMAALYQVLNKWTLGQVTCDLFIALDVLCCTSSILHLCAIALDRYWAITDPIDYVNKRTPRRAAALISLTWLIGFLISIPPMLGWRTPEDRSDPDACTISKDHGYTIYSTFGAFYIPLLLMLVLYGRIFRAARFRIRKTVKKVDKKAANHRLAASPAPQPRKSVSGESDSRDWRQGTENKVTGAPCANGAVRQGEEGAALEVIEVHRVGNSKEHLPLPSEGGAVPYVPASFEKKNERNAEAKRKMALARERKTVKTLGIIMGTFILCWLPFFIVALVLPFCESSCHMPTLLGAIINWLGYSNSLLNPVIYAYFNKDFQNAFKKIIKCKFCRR
Experimental: 2.) Affinity for the 5-HT1A receptor [W. U. Dompert et al., Naunyn-Schmeideberg's Arch. Pharmacol. (1985), 328, 467-470]. In this test, the binding of ^3 H-ipsapiron to 5-HT1A receptors in calf hippocampus membranes is measured.

[2] = molecular target: sigma receptor; test: Affinity for the sigma receptor, DTG binding to calf hippocampus membranes; conditions: 3-di-o-tolyl-guanidine (DTG), Ki calculated from IC50
Experimental: 3.) Affinity for the sigma receptor The sigma receptor binding test is described in detail by E. Weber et al. (1986), Proc. Natl. Acad. Sci. 83, 8784-8788 and M. P. Kavanaugh et al., (1988), Proc. Natl. Acad. Sci. 85, 2844. […] In this binding test, IC50 values which indicate the test substance concentration at which 50% of the binding of the radioligand is suppressed are determined. The inhibition constants Ki are calculated from these taking into account the dissociation constants and the concentration of radioligands.

[3] = molecular target: 5-HT1 receptor; test: Affinity for the 5-HT1 receptor, 3H-serotonin binding to calf hippocampus membranes; conditions: 3H-serotonin radioligand
Source text: 1.) Affinity for the 5-HT1 receptor
The high affinity of the compounds according to the invention for 5-hydroxytryptamine receptors of the sub-type 1 is shown by way of example in Table A. The values given are data which have been determined from receptor binding studies using calf hippocampus membrane preparations. ^3 H-Serotonin was used as the radioactively labelled ligand for this.

SMILES | Ki [1] | Ki [2] | Ki [3]
c1ccc2c(c1)CCC(CNCC13CC4CC(CC(C4)C1)C3)O2 (stereo not drawn) [Example 31] | 4.2 nM | 16 nM | 
CC(CCCNCC1CCc2ccccc2O1)c1ccccc1 (stereo not drawn) [Example 18] |  |  | 3 nM
COc1cccc2c1OC(CNCc1ccc(C(F)(F)F)cc1)CC2 (stereo not drawn) [Example 22] |  |  | 6 nM
c1ccc2c(c1)CCC(CNCC1CC1)O2 (stereo not drawn) [Example 28] | 2.3 nM |  | 
c1ccc(CN2CCC(CNCC3CCc4ccccc4O3)CC2)cc1 (stereo not drawn) [Example 36] | 0.5 nM | 25 nM | 

The next lines start with the values.

Ki [1] | Ki [2] | Ki [3] | SMILES
0.7 nM | 8 nM |  | COc1cccc2c1OC(CNCC1CCCCC1)CC2 (stereo not drawn) [Example 17, N-Cyclohexylmethyl-2-aminomethyl-8-methoxychroman hydrochloride]
 | 5 nM | 36 nM | COc1cccc2c1O[C@@H](CN(C)CC1CCCCCC1)CC2 [Example 13, 2-(R)-2-(N-Cycloheptylmethyl-N-methyl)aminomethyl-8-methoxy-chroman hydrochloride]
 | 7 nM |  | c1ccc2c(c1)CC[C@@H](CNCC1CCCCCC1)O2 [Example 1, S-(+)-2-(N-Cycloheptylmethyl)aminomethyl-chroman hydrochloride]
28 nM |  |  | CN(CC1CCN(Cc2ccccc2)CC1)CC1CCc2ccccc2O1 (stereo not drawn) [Example 35]
 | 30 nM | 5 nM | COc1ccc(CNCC2CCc3cccc(OC)c3O2)cc1 (stereo not drawn) [Example 23]
